41 molecules from patent publication US12583858B2 (Genentech, Inc., priority 2015, dated 2026) can be followed below.

The target of the experiment is T1, TDO2 (Homo sapiens, UniProt P48775).
T1 construct: decreased levels of NFK in SW48 cells (high TDO expressing cells)
T1 sequence (P48775 whole entry): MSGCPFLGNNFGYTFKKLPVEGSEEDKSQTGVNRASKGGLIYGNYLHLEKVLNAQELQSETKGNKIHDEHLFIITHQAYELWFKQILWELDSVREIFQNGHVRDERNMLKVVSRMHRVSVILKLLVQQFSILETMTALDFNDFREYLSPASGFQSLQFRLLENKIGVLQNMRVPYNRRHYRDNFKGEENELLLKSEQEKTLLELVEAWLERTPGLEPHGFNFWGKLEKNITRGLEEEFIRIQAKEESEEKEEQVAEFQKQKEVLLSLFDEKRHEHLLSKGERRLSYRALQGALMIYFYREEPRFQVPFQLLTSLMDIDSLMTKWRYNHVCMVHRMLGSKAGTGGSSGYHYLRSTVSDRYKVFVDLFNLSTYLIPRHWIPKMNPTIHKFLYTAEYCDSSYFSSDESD
The experiment in a line: TDO2 cell assay (NFK GreenScreen, SW48 cells). It counts as cell-based. Particulars: SW48 cells (high TDO expressing), 200 uM tryptophan, 24 hours; Table 3; read-out: TDO2 Cell Fluor EC50.
With `O=S(=O)(C1CC1)N1CCC(C2c3ccccc3-c3cncn32)C(O)C1` (mixture of isomers) [Example 77b, (3S,4SR)-1-(cyclopropylsulfonyl)-4-((S)-5H-imidazo[5,1-a]isoindol-5-yl)piperidin-3-ol], the EC50 amounted to 86 nM. As for `OC1(C2c3ccccc3-c3cncn32)CCOCC1` (racemic) [Example 43, 4-(5H-imidazo[5,1-a]isoindol-5-yl)tetrahydro-2H-pyran-4-ol], the figure is 2860 nM. Next, `CC(C)(O)C1c2ccccc2-c2cncn21` (racemic) [Example 44, 2-(5H-imidazo[5,1-a]isoindol-5-yl)propan-2-ol]: 6840 nM; `OC1(C2c3ccccc3-c3cncn32)COC1` (racemic) [Example 48, 3-(5H-imidazo[5,1-a]isoindol-5-yl)oxetan-3-ol]: 7260 nM. For the molecule `OC1(C2c3ccccc3-c3cncn32)CCC(F)(F)CC1` (racemic) [Example 53, 4,4-difluoro-1-(5H-imidazo[5,1-a]isoindol-5-yl)cyclohexan-1-ol], the concentration for a half-maximal effect (EC50) came out at 170 nM. As for `OC1(C2c3ccccc3-c3cncn32)CC(CF)(CF)C1` (racemic) [Example 54, 3,3-bis(fluoromethyl)-1-(5H-imidazo[5,1-a]isoindol-5-yl)cyclobutan-1-ol], the figure is 3400 nM; as for `OC1(C2c3ccccc3-c3cncn32)CCCC1` (racemic) [Example 55, 1-(5H-imidazo[5,1-a]isoindol-5-yl)cyclopentan-1-ol], 1600 nM. As for `O=S1(=O)CC(C2c3ccccc3-c3cncn32)C(O)c2ccccc21` (racemic) [Example 96a, 4-hydroxy-3-(5H-imidazo[5,1-a]isoindol-5-yl)thiochromane 1,1-dioxide], the figure is 890 nM; as for `C[C@@](O)(C1CCOCC1)[C@@H]1c2ccccc2-c2cncn21` (racemic) [Example 131a, Mixture of(S)-1-((R)-5H-imidazo[5,1-a]isoindol-5-yl)-1-(tetrahydro-2H-pyran-4-yl)ethan-1-ol and (R)-1-((S)-5H-imidazo[5,1-a]isoindol-5-yl)-1-(tetrahydro-2H-pyran-4-yl)ethan-1-ol], 19000 nM; as for `CC1(C)CC(O)(C2c3ccccc3-c3cncn32)C1` (racemic) [Example 147a, 1-(5H-imidazo[5,1-a]isoindol-5-yl)-3,3-dimethylcyclobutan-1-ol], 810 nM. On to `O[C@@H]1CC[C@H]1[C@@H]1c2ccccc2-c2cncn21` (single isomer, unassigned) [Example 01f], for which the 50% effective concentration (EC50) was over 25000 nM. Consider `OC1CCC1C1c2ccccc2-c2cncn21` (single isomer, unassigned) [Example 01g], for which the EC50 was determined as 3300 nM.

For `OC1CCC1C1c2ccccc2-c2cncn21` (single isomer, unassigned) [Example 01h], the EC50 was found to be 16000 nM. For the molecule `OC1CCCC1C1c2ccccc2-c2cncn21` (single isomer, unassigned) [Example 02e], the concentration for a half-maximal effect (EC50) was found to be 17000 nM. As for `OC1CCCC1C1c2ccccc2-c2cncn21` (single isomer, unassigned) [Example 02f], the figure is 70 nM; as for `OC1CCCC1C1c2ccccc2-c2cncn21` (single isomer, unassigned) [Example 02g], 340 nM. With `OC1CCCC1C1c2ccccc2-c2cncn21` (single isomer, unassigned) [Example 02h], the EC50 is over 25000 nM. Take `OC1CCCCC1C1c2ccccc2-c2cncn21` (single isomer, unassigned) [Example 03c]: the EC50 is over 25000 nM. As for `OC1CCCCC1C1c2ccccc2-c2cncn21` (single isomer, unassigned) [Example 03d], the figure is 36 nM; as for `OC1CCCCC1C1c2ccccc2-c2cncn21` (single isomer, unassigned) [Example 03e], 16000 nM.

For the molecule `OC1CCCCC1C1c2ccccc2-c2cncn21` (single isomer, unassigned) [Example 03f], the EC50 was found to be 300 nM.

As to `OC1c2cnccc2CCC1C1c2ccccc2-c2cncn21` (single isomer, unassigned) [Example 04a], the EC50 came to 1300 nM. As for `OC1c2cnccc2CCC1C1c2ccccc2-c2cncn21` (single isomer, unassigned) [Example 04b], the figure is over 25000 nM. Regarding `OC1c2cnccc2CCC1C1c2ccccc2-c2cncn21` (single isomer, unassigned) [Example 04c], the 50% effective concentration (EC50) is 1000 nM. Next, `O[C@@H]1c2cnccc2CC[C@@H]1[C@H]1c2ccccc2-c2cncn21` (single isomer, unassigned) [Example 04d]: 20000 nM; `O[C@H]1c2cnccc2CC[C@@H]1[C@@H]1c2ccccc2-c2cncn21` (single isomer, unassigned) [Example 04f]: 2300 nM; `O[C@H]1c2cnccc2CC[C@@H]1[C@@H]1c2ccccc2-c2cncn21` (single isomer, unassigned) [Example 04g]: 19000 nM. As to `O[C@@H]1c2cnccc2CC[C@H]1[C@H]1c2ccccc2-c2cncn21` (single isomer, unassigned) [Example 04h], the EC50 worked out at 130 nM. As for `OC1COCCC1C1c2ccccc2-c2cncn21` (single isomer, unassigned) [Example 06g], the figure is 560 nM; as for `OC1COCCC1C1c2ccccc2-c2cncn21` (single isomer, unassigned) [Example 06h], over 25000 nM.

Turning to `OC1c2cncn2CCC1C1c2ccccc2-c2cncn21` (single isomer, unassigned) [Example 07a], the half-maximal effective concentration (EC50) was 15000 nM.

For the molecule `OC1c2cncn2CCC1C1c2ccccc2-c2cncn21` (single isomer, unassigned) [Example 07b], the 50% effective concentration (EC50) is over 25000 nM. On to `OC1c2cncn2CCC1C1c2ccccc2-c2cncn21` (single isomer, unassigned) [Example 07e], for which the EC50 was 2200 nM. For the molecule `OC1c2cncn2CCC1C1c2ccccc2-c2cncn21` (single isomer, unassigned) [Example 07f], the EC50 is over 25000 nM. For the molecule `O[C@H]1c2ccncc2CC[C@@H]1[C@@H]1c2ccccc2-c2cncn21` (single isomer, unassigned) [Example 08b], the EC50 amounted to 600 nM. On to `O[C@H]1c2ccncc2CC[C@H]1[C@@H]1c2ccccc2-c2cncn21` (single isomer, unassigned) [Example 08c], for which the half-maximal effective concentration (EC50) is 5200 nM. Next, `O[C@@H]1c2ccncc2CC[C@@H]1[C@H]1c2ccccc2-c2cncn21` (single isomer, unassigned) [Example 08d]: 510 nM; `O[C@H]1c2ccncc2CC[C@@H]1[C@H]1c2ccccc2-c2cncn21` (single isomer, unassigned) [Example 08e]: 230 nM; `O[C@@H]1c2ccncc2CC[C@H]1[C@@H]1c2ccccc2-c2cncn21` (single isomer, unassigned) [Example 08f]: 12000 nM. As for `O[C@@H]1c2ccncc2CC[C@@H]1[C@@H]1c2ccccc2-c2cncn21` (single isomer, unassigned) [Example 08g], the figure is 8300 nM; as for `O[C@H]1c2ccncc2CC[C@H]1[C@H]1c2ccccc2-c2cncn21` (single isomer, unassigned) [Example 08h], 100 nM.
